According to patent US20240051944A1, “CRYSTALLINE FORM II OF MELANOCORTIN RECEPTOR AGONIST COMPOUND AND PREPARATION METHOD THEREFOR” (LG CHEM, LTD., priority 2020, published 2024):
Entries after “also recorded” stand apart in the source; their conditions may differ.

Columns and labels:
Format in all cases: physicochemical
[1] = Dynamic vapor sorption (DVS) analysis
Description: DVS was measured using automated gravimetric vapor sorption analyzer equipped with Cahn D200 ultra-microbalance (DVS Intrinsic apparatus, Surface Measurement System Ltd., UK). First, a sample of 10-20 mg was put in a sample pan and hung on a hang-down wire, and measurement was started when the weight and humidity reached equilibrium. In one cycle, relative humidity was increased from 0% to 90% and then dropped back to 0%. Two cycles were carried out. The experiment was carried out in a way that the relative humidity was increased at 10% increment using a dm/dt method. The experiment was carried out at room temperature (25° C.)

[2] = Stability assessment (HPLC) under accelerated and harsh storage conditions; conditions: for Stability assessment, HPLC content: in % (unit assumed)
Description: About 10-30 mg of the sample was stored for 4 weeks in an open state under the accelerated condition (40° C., 75% RH) or in a sealed state under the harsh condition in an oven at 80° C. [table]

[3] = Thermogravimetric analysis (TGA); conditions: heated 30° C. to 350° C. at 10° C./min
Description: The TGA was measured using Mettler Toledo TGA/DSC 1 module. About 4-8 mg of the sample is weighed and put into a 100 μL Al crucible (flat-bottomed aluminum crucibles). Then, TGA measurement is performed while the sample is heated from 30° C. to 350° C. at a rate of 10° C./min. During the measurement, nitrogen gas is supplied to the inside of the instrument at a rate of 80 mL/min to prevent the inflow of oxygen and other gases. Data collection and evaluation were performed using the software STARe.

## CC(C)C(=O)N([C@H]1C[C@@H](C(=O)N2CCOCC2)N(C(=O)[C@@H]2CN(C(C)(C)C)C[C@H]2c2ccc(Cl)cc2)C1)[C@H]1CC[C@@H](C)CC1 [Example 1, N-((3S,5S)-1-((3S,4R)-1-(tert-butyl)-4-(4-chlorophenyl)pyrrolidine-3-carbonyl)-5-(morpholine-4-carbonyl)pyrrolidin-3-yl)-N-((1s,4R)-4-methylcyclohexyl)isobutyramide]
[1]; XRPD after DVS analysis
  physical change after DVS (XRPD pattern vs initial): no physical change occurred
[1]; between 0-90% RH, 25° C.
  total weight gain (DVS): 1.25 % w/w
[2]; Accelerated condition (40° C./75% RH), open state, Day 3
  Stability assessment, HPLC content: 96.35
[2]; Accelerated condition (40° C./75% RH), open state, Week 1
  Stability assessment, HPLC content: 96.02
[2]; Accelerated condition (40° C./75% RH), open state, Week 2
  Stability assessment, HPLC content: 96.08
[2]; Accelerated condition (40° C./75% RH), open state, Week 4
  Stability assessment, HPLC content: 95.69
[2]; Harsh condition (80° C.), sealed state, Day 3
  Stability assessment, HPLC content: 96.54
[2]; Harsh condition (80° C.), sealed state, Week 1
  Stability assessment, HPLC content: 95.74
[2]; Harsh condition (80° C.), sealed state, Week 2
  Stability assessment, HPLC content: 94.82
[2]; Harsh condition (80° C.), sealed state, Week 4
  Stability assessment, HPLC content: 93.42
[2]; Initial
  Stability assessment, HPLC content: 96.01
[2]; accelerated condition (40° C., 75% RH), 4 weeks, listed as crystalline form II
  chemical stability (HPLC), result in words: showed chemical stability for 4 weeks; also recorded: exhibited chemical stability for 4 weeks
[2]; harsh condition (closed state, 80° C.), 4 weeks
  decrease in the content: about 2.6%
[3]
  weight loss before degradation (TGA): no weight loss was observed
[3]; error ±5° C.
  temperature up to which thermally stable (TGA): up to 270 °C
